Here are results for two molecules from patent US8980933B2, “Combretastatin analogs for use in the treatment of cancer” (Universitat Bayreuth, priority 2010, dated 2015).

“Also recorded” adds a separate entry of the source.

For series [1], the system named is 1411HP germ cell tumor xenografts. The experiment in a line: Nude mouse xenograft model of resistant 1411HP. The class given is in vivo. The note with it: for intra-tumoral hemorrhage (vascular disrupting effect): after 24 h. How it is done:
In vivo antitumor activity and tolerability of compounds 5b and 6b of the invention were studied in a nude mouse xenograft model of the resistant germ cell tumor cell line 1411HP employing Athymic Nude-Fox n1 nu/nu mice (Harlan und Winkelmann, Borchen, Germany).
The tests were carried out as follows. The mice were kept under pathogen-free conditions, fed on an autoclaved standard diet and given free access to sterilized water. Each of five mice were administered a 150 μL phosphate buffered saline suspension of 10 million 1411HP cells into the left flank to generate subcutaneous xenograft tumors. After 4 weeks one group of two mice bearing 1411HP xenografts with a volume of ca. 1 cm^3 were injected i.p. with a single dose of 30 mg/kg body weight of 5b or 6b, respectively. Two mice in the second group with xenografts of a volume of ca. 2.5 cm^3 were injected i.p. with 20 mg/kg body weight of 5b on two consecutive days. Tumor volumes were calculated by caliper measurement using the formula a^2×b×0.5 with a being the short and b the long dimension. Body weight was assessed twice weekly and daily while under therapy.

The test system of series [2] is KB-V1/Vbl cervical carcinoma cells. The experiment in a line: MTT cell growth inhibition, KB-V1/Vbl. The class given is cell-based, human. The conditions noted are these: Pgp-overexpressing KB-V1 cells. As to the method: The MCF-7/Topo cells were grown in E-MEM medium (Sigma) supplemented with 2.2 g/L NaHCO3, 110 mg/L sodium pyruvate and 5% FCS. The cells were maintained in a moisture-saturated atmosphere (5% CO2) at 37° C. in 75-mL culture flasks (Nunc, Wiesbaden, Germany). They were serially passaged following trypsinisation by 0.05% trypsin/0.02% EDTA (PAA laboratories, Clbe, Germany). Mycoplasma contamination was routinely monitored, and only mycoplasma-free cultures were used.
HL-60 leukemia cells (5×10^5/mL), and cells (5×10^4/mL) of 518A2 melanoma, HT-29 colon, KB-V1/Vbl cervix and MCF-7/Topo breast carcinoma were seeded out in 96-well tissue culture plates and cultured for 24 h. […] Blank and solvent controls were treated identically. MTT in phosphate buffered saline (5 mg/mL) was added to a final concentration of 0.05% (HL-60, 518A2) or 0.1% (HT-29, KB-V1/Vbl, MCF-7/Topo). After 2 h the formazan precipitate was dissolved in 10% sodium dodecylsulfate in DMSO containing 0.6% acetic acid in the case of the HL-60 cells. For the adherent 518A2, KB-V1/Vbl, MCF-7/Topo and HT-29 cells the microplates were swiftly turned to discard the medium before adding the solvent mixture. The microplates were gently shaken in the dark for 30 min and absorbance at 570 nm and 630 nm (background) was measured with an ELISA plate reader. All experiments were carried out in quadruplicate; the percentage of viable cells was calculated as the mean±SD with controls set to 100%.

For series [3], the system named is 1411HP germ cell tumor cell line. The experiment in a line: SRB-cytotoxicity assay, 1411HP. The class given is cell-based, human. The note with it: for effect on multi-drug resistance of 1411HP cells: compared with cisplatin. As to the method:
The cytotoxic activity of 5b was established by standard colorimetric tests (SRB- and MTT-assays) against various tumor cell lines of different entities. For the SRB cytotoxicity assay, dose-response curves of the testicular germ cell tumor cell lines exposed to drug concentrations of 0.001-10 μM were established using the sulforhodamine-B (SRB) microcuiture colorimetric assay (Papazisis et al. Optimization of the sulforhodamine B colorimetric assay. J. Immunol. Methods 1997, 208, 151-158) and performed as described in: Müller et al. Failure of activation of caspase-9 induces a higher threshold for apoptosis and cisplatin resistance in testicular cancer. Cancer Res. 2003, 63, 513-521. Briefly, cells were seeded into 96-well plates on day 0, at cell densities previously determined to ensure exponential cell growth during the period of the experiment. On day 1, cells were treated with the drugs dissolved in medium to give the appropriate concentrations for indicated times and the percentage of surviving cells relative to untreated controls was determined on day 5.

The subject of series [4] is A2780 ovarian carcinoma xenografts. The experiment in a line: A2780 ovarian carcinoma xenograft model. Format: in vivo, mouse.
Series [5] relates to HUVEC cells. The experiment in a line: Tube formation assay on matrigel. The class given is cell-based. The note with it: 7.72 ng/mL. How it is done:
35 μL of media:matrigel (1:1) were added into wells of a 96-well plate and incubated at 37° C. for 30 minutes. A trypsinized HUVEC cell suspension was set to 800.000 cells/mL. In another 96-well plate 25 μL of the compound stock were serially diluted with 25 μL of media. 25 μL of compound dilutions and 25 μL of cell suspension were added to the matrigel coated 96-well plate and the cells were incubated over night. As a negative control, methanol was used as in place of the compound dilutions.

The mark [6] stands for this setting: dual-dose i.p. 20 mg/kg on two consecutive days.
Where [7] appears, read: single dose 30 mg/kg i.p., xenografts ca. 1 cm3.

In the case of `COc1ccc(-c2c(-c3cc(Br)c(OC)c(OC)c3)ncn2C)cc1N` [compound 6b, 1-methyl-5-(3-amino-4-methoxyphenyl)-4-(3-bromo-4,5-dimethoxyphenyl)-imidazole], the vascular disrupting effect entry in series [1] (1411HP xenograft model) is given as “vascular disrupting activity; also recorded: vascular disrupting in tumor xenografts”; in series [4] it was “vascular disrupting activity”. For the same molecule, the tumor response result in series [1] (setting [6]) was “high antitumor activity to a similar extent as compound 5b”; in series [1] (setting [7]), “transient swelling of the tumors, eventually followed by regression and slow regrowth”. In addition, the tolerability entry in series [1] (single dose 30 mg/kg i.p.) is recorded as “tolerated this treatment very well”. Further, the “intra-tumoral hemorrhage (vascular disrupting effect)” value in series [1] (setting [7]) was “strong intra-tumoral hemorrhage”. The IC50 concentration entry in series [2] is reported as “single-digit nanomolar range”. The “effect on multi-drug resistance of 1411HP cells” value in series [3] was “breach of the multi-drug resistance of 1411HP cells”. Also, the “inhibition of tube formation” value in series [5] was “pronounced inhibition of tube formation”.
Take `COc1ccc(-c2c(-c3cc(Cl)c(OC)c(OC)c3)ncn2C)cc1N` [compound 5b, 1-methyl-5-(3-amino-4-methoxyphenyl)-4-(3-chloro-4,5-dimethoxyphenyl)-imidazole]: the tumor response entry in series [1] (setting [6]) was “dramatic tumor regressions, leading even to a stabilization in one case”. Further, the tolerability result in series [1] (single dose 30 mg/kg i.p.) is listed as “tolerated this treatment very well”. In addition, in series [1] (setting [7]), the “intra-tumoral hemorrhage (vascular disrupting effect)” value is “strong intra-tumoral hemorrhage”; the tumor response result is “transient swelling of the tumors, eventually followed by regression and slow regrowth”. For the same molecule, the “duration of tumor volume stabilization” value in series [1] (single dose application) is listed as “stabilize the tumor volume for about two weeks”. For the same molecule, in series [1] (third course of double dose 20 mg/kg i.p.), the “tolerability of repeated applications” value is “well tolerated”. In addition, in series [1] (three double doses of 20 mg/kg i.p. (further on days 16/17 and 35/36)), the “tumor response to repeated applications” value is “regressions and prolonged periods of stabilization following each of the three applications”. In series [2], the IC50 concentration result is “single-digit nanomolar range”. Further, the concentration for half-maximal inhibition (IC50) (as a rule, the concentration needed to halve the response being measured) in series [3] (Homo sapiens, 1411HP (chemoresistant), 96 h) was in the range of 30 to 50 nM. In series [3], the “effect on multi-drug resistance of 1411HP cells” value was “breach of the multi-drug resistance of 1411HP cells”. In addition, the vascular disrupting effect result in series [4] is recorded as “vascular disrupting activity”. The “inhibition of tube formation” value in series [5] was “did not yield a correspondingly strong inhibition at this concentration”.
